Reference: patent US10160812B2, “Bispecific HER2 antibodies” (MedImmune, LLC, priority 2014, dated 2018)

Legend:
JIMT-1 model = assay: CBX orthotopic tumor model (T-DM1 non-responder); format: in vivo, Athymic nude mice; conditions: JIMT-1 orthotopic CBX; Bs2-4T at 3 mg/kg
Method: All mouse experiments were carried out in compliance with the guidelines published by the Association for Assessment and Accreditation of Laboratory Animal Care (AAALAC) and protocols approved by the MedImmune Institutional Animal Care and Use Committee. Athymic nude mice between 4-8 weeks of age were used in the studies. In subcutaneous CBX models, animals were injected unilaterally on the right flank with tumor cells harvested from culture at a specific passage lot. […] In PDX models, animals are implanted unilaterally on the flank with tumor fragments harvested from host animals each implanted from a specific passage lot. Pre-study tumor volumes were recorded for each experiment beginning approximately one week prior to its estimated start date. […] Animals were dosed once weekly unless otherwise specified with test articles via intravenous or intraperitoneal injection. Animals were observed daily and tumor dimensions and body weights were measured and recorded twice weekly.

ST225 model = assay: PDX tumor model (HER2-3+ breast cancer); format: in vivo, Athymic nude mice; conditions: Bs2-4T at 3 mg/kg
Method: (§1) All mouse experiments were carried out in compliance with the guidelines published by the Association for Assessment and Accreditation of Laboratory Animal Care (AAALAC) and protocols approved by the MedImmune Institutional Animal Care and Use Committee. Athymic nude mice between 4-8 weeks of age were used in the studies. In subcutaneous CBX models, animals were injected unilaterally on the right flank with tumor cells harvested from culture at a specific passage lot. In orthotopic CBX models, xenografts were established by injecting 5×10^6 cells per mouse (suspended in 50% matrigel) into the mammary fat pad on the right flank of animals. In PDX models, animals are implanted unilaterally on the flank with tumor fragments harvested from host animals each implanted from a specific passage lot. Pre-study tumor volumes were recorded for each experiment beginning approximately one week prior to its estimated start date. When tumors reach the appropriate tumor volume initiation (TVI) range (typically 150-250 mm^3), animals are randomized into treatment and control groups and dosing initiated. […] Animals were observed daily and tumor dimensions and body weights were measured and recorded twice weekly. Tumor volumes are calculated using the following formula: tumor volume=π÷6 (length×width^2). […]

SKOV-3 [1] = assay: In vitro cytotoxic activity (Cell Titer Glo); format: cell-based, human; conditions: SKOV-3, 3 to 4 days; read-out: In vitro potency (EC50 in pM)
Method: (§3) A panel of human cancer cell lines expressing various levels of HER2 was used to evaluate the cytotoxic activity of bispecific ADC (Table 5 in Example 1). Briefly, cells were harvested, resuspended, and plated in serum-containing culture media at a density of 5,000 to 20,000 per well (depending on the growth kinetics of each cell line) of 96-well plates in a volume of 100 μL. A 2× concentration of each dose of antibody or ADC to be tested was prepared by diluting the test articles in culture medium. One hundred microliters of each test article was added to cells in triplicate such that the final dose curve ranged from 5 nM down to 0.08 pM in a stepwise 1:4 serial dilution series. The treated cells were incubated at 37° C./5% CO2 for 3 to 4 days, depending on the growth kinetics of each particular cell line. Cell viability was determined using Cell Titer Glo according to manufacturer's instructions. Data are analyzed by the GraphPad Prism software and presented as percent growth inhibition relative to the untreated control. EC50 values were determined using Sigmoidal non-linear regression analysis with GraphPad Prism software and were summarized in Table 6.

MCF7-GTU = assay: In vitro cytotoxic activity (Cell Titer Glo); format: cell-based, human; conditions: 3 to 4 days
Method: (§4) Briefly, cells were harvested, resuspended, and plated in serum-containing culture media at a density of 5,000 to 20,000 per well (depending on the growth kinetics of each cell line) of 96-well plates in a volume of 100 μL. A 2× concentration of each dose of antibody or ADC to be tested was prepared by diluting the test articles in culture medium. One hundred microliters of each test article was added to cells in triplicate such that the final dose curve ranged from 5 nM down to 0.08 pM in a stepwise 1:4 serial dilution series. The treated cells were incubated at 37° C./5% CO2 for 3 to 4 days, depending on the growth kinetics of each particular cell line. Cell viability was determined using Cell Titer Glo according to manufacturer's instructions. Data are analyzed by the GraphPad Prism software and presented as percent growth inhibition relative to the untreated control.

MDA-MB-468 = assay: In vitro cytotoxic activity (Cell Titer Glo); format: cell-based, human; conditions: MDA-MB-468, 3 to 4 days
Method: as §4

JIMT-1 = assay: In vitro cytotoxic activity (Cell Titer Glo); format: cell-based, human; conditions: JIMT-1, 3 to 4 days
Method: as §3

SKOV-3 [2] = assay: Disruption of intracellular microtubule network (immunofluorescence); format: cell-based, human; conditions: SKOV-3 (T-DM1 eligible), 5 nM ADC overnight
Method: (§2) On day 1, cells were harvested by trypsinization, resuspended in culture media, and then seeded in 8-well chamber slides at a density of 6×10^4 cells/well. Slides were incubated at 37° C./5% CO2 overnight. On day 2, media were aspirated to remove any unattached cells and then fresh media containing 5 nM ADC to be tested were added to the cells. Slides were incubated at 37° C./5% CO2 overnight. On day 3, each chamber was washed twice with 1×PBS. Cells were then fixed with 4% PFA for 20 min. At the end of fixation, the chambers were removed and slides were stained following standard immunofluorescence procedures. Briefly, cells were permeabilized using Triton X-100 and washed with 1×PBS containing Tween-20. Rabbit anti-human α-Tubulin Alexa-Fluor 488 (clone 11H10) was diluted by 1:100 in DAKO antibody diluent and added to the slides. After incubation at room temperature for 1 hour, slides were coversliped with ProLong® Gold Antifade Reagent containing DAPI. Stained cells were visualized by the Leica SP5 Confocal Microscope and the Leica Application Suite Advanced Fluorescence software suite.

RT-112 = assay: as above; format: cell-based, human; conditions: RT-112 (T-DM1 ineligible), 5 nM ADC overnight
Method: as §2

ST455B model = assay: PDX tumor model (triple-negative, HER2 IHC 1+); format: in vivo, Athymic nude mice; conditions: Bs2-4T at 3 mg/kg
Method: as §1

ST996 model = assay: PDX tumor model (triple-negative, HER2 IHC 1+); format: in vivo, Athymic nude mice; conditions: Bs2-2T at 3 mg/kg
Method: as §1

T47D = assay: In vitro cytotoxic activity (Cell Titer Glo); format: cell-based, human; conditions: 3 to 4 days
Method: as §4

ZR-75-1 = assay: In vitro cytotoxic activity (Cell Titer Glo); format: cell-based, human; conditions: ZR-75-1, 3 to 4 days
Method: as §4

[3] = molecular target: T1, HER2:HER3 heterodimerization (Homo sapiens, UniProt P04626); assay: Disruption of HER2:HER3 heterodimerization (IP/Western, T47D cells); format: cell-based; conditions: 500 nM antibody, heregulin-b1 8 ng/mL
T1 construct: endogenous in cells; host or cells: T47D
Method: Cells were seeded at a density of 1×10^6 cells/well in a 6-well plate and then incubated overnight at 37° C./5% CO2. […] After pre-treatment, heregulin-β1 was added at a final concentration of 8 ng/mL and cells were incubated for 5 min at 37° C./5% CO2. Cells were then washed twice with ice-cold 1×PBS, lysed and immune-precipitated using mouse anti-human HER2 (clone 44E7) antibody and the Pierce Classic IP Kit from Thermo Scientific according to manufacturer's instructions. Immune-precipitated protein samples were eluted in Laemmli buffer containing 2-mecaptoethanol and analyzed by Western blot using standard protocol. Rabbit anti-human HER2 (clone 29D8) antibody was used to detect HER2 and rabbit anti-human HER3 (C-17) polyclonal antibody was used to detect HER3 in the Western blot analysis.

NCI-N87 cell = assay: Proliferation inhibition assay in serum-containing media; format: cell-based, human
Method: Cell viability was determined using Cell Titer Glo from Promega according to manufacturer's instructions.

Molecule	in vivo activity (tumor growth) (JIMT-1 model)	in vivo activity (tumor growth) (ST225 model)	EC50 (SKOV-3 [1]) [pM]	In vitro potency (EC50 in pM) (MCF7-GTU)	In vitro potency (EC50 in pM) (MDA-MB-468)	In vitro potency (EC50 in pM) (JIMT-1)	disruption of intracellular microtubule networks (SKOV-3 [2])	disruption of intracellular microtubule networks (RT-112)	in vivo activity (tumor growth) (ST455B model)	in vivo activity (tumor growth) (ST996 model)	In vitro potency (EC50 in pM) (T47D)	In vitro potency (EC50 in pM) (ZR-75-1)	disruption of HER2:HER3 heterodimerization induced by ligand stimulation [3]	inhibition of cell proliferation (NCI-N87 cell)	inhibition of cell growth in combination (NCI-N87 cell; combined with trastuzumab or pertuzumab)
T-DM1 [reference compound]	no activity	tumor stasis	116	Inactive	Inactive	Inactive	capable of disrupting microtubule networks	inactive	no activity	no activity	Inactive	Inactive			
39S: lead optimized monoclonal antibody derived from the 1.39.1 antibody; VH SEQ ID NO:15, VL SEQ ID NO:16 (antibody, V domains shown) VH: EVQLVESGGGLVKPGGSLRLSCAASGFTFSSYSMSWVRQAPGKGLEWVSSISSSSSYIYYADSVKGRFTISRDNAKNSLYLQMNSLRAEDTAVYYCARGGDAYNYYYFDYWGQGTLVTVSS VL: DIVMTQTPLSLSVTPGQPASISCKSSQSVFFRSNNKNILAWYLQKPGQPPQLLIYWASSRESGVPDRFSGSGSGTDFTLKISRVEAEDVGVYYCQQYFGSPFTFGPGTKVDIK													can disrupt	limited activity	strong synergistic effect
